In US20060069064A1, “Methods for facilitating recovery of functions of endogenous or implanted or transplanted stem cells using hyaluronic acid” (priority 2003, published 2006):

Columns and labels:
5-FU-treated mice [1] = conditions: mouse, in vivo
Method: 5-FU was intraperitoneally injected in mice at 150 mg/kg. The counts of white blood cells (WBC), red blood cells (RBC), platelets (PLT), hemoglobin (HGB) and hematocrit (HCT) were monitored daily for two weeks. As expected, the treatment of mice with 5-FU induced severe bone marrow hypoplasia and pancytopenia. The numbers of WBC and PLT dropped from 8.4±1.5×10^6/ml and 678.4±82×10^6/ml before 5-FU administration to 2.52±0.5×10^6/ml and 388±50×10^6/ml, respectively, 7 days later (FIGS. 1A, B). The total number of mononuclear cells in the bone marrow decreased from 15.3±2.2×10^6/femur before to 5.00±0.65×10^6/femur 7 days after 5-FU administration (FIG. 2A). All parameters were recovered to normal in 14 days after 5-FU administration. To examine the effect of HA on 5-FU-perturbed hematopoiesis, 5-FU-treated (day 0) mice were administered 100 μg/mouse HA as a 0.05% solution in PBS (HA from Sigma-Aldrich, Catalog No.: H1751) on days 4, 6, 10, and 13. A control group of animals was treated with a 200-μl injection of PBS. The peripheral blood from HA- and PBS-treated mice was collected daily and examined for numbers of WBC, RBC, PLT, HGB, and HCT. […] The number of PLT in HA-treated mice was increased starting from day 5 and was elevated by a factor of 1.7 on day 8 (FIG. 1B). […]

5-FU-treated mice [2] = assay: Bone marrow hematopoiesis in 5-FU-treated mice (cell counts, morphological analysis); type: in vivo; conditions: 7 days after 5-FU 150 mg/kg i.p.; 15.3±2.2 before
Method: Because mature blood cells are a product of proliferation and differentiation of hematopoietic progenitors, we next examined the effect of HA on bone marrow hematopoiesis in 5-FU-treated mice. 5-FU-treated mice (day 0) were administered PBS or 100 μg/mouse HA (as a 0.05%solution in PBS) on day 4, 6, 10, and 13. Bone marrow cells were harvested on days 7, 14, 21, and 28. On day 7 the total number of bone marrow cells in the HA-treated mice was 3.5-fold higher in comparison to the PBS-treated mice (FIG. 2A). To evaluate the effect of HA on different hematopoietic lineages, a morphological analysis of the bone marrow cells was performed as followed. […]
To examine this assumption, bone marrow cells were cultured in methylcellulose to evaluate the number of proliferating lineage-committed progenitors. […] Colonies containing more then 20 cells were counted under the inverted microscope after 7 days of culture. […] Colonies containing at least 500 cells were counted after 14 days. […] We next investigated whether HA stimulation benefited the pool of committed progenitors at the cost of damaging more primitive progenitors that were measured by using a long-term culture-initiating cells (LTC-IC) assay. The number of LTC-IC in the bone marrow of mice treated with HA was evaluated using a limited dilution assay. […]

Compound: O=c1[nH]cc(F)c(=O)[nH]1 [5-FU, 5-fluorouracil]
- time until all parameters recovered to normal after 5-FU administration (5-FU-treated mice [1]): 14 days
- total number of mononuclear cells in the bone marrow (5-FU-treated mice [2]): 5.00±0.65 ×10^6/femur
